Results reported in patent publication US20250034136A1 (Nimbus Wadjet, Inc., priority 2023, published 2025).

How the values were obtained:
[1] = biological target: WRN (BV08), human Werner helicase (Uniprot Q14191, amino acids 517-1235 with L1074F point mutation) (Homo sapiens (Human), UniProt Q14191, L1074F); assay: WRN (BV08) ADP-Glo assay; assay type: biochemical; conditions: class symbols A-E, read-out: ADP-Glo_hWRN_IC50
[2] = tested on: p21 induction in HCT116 cells; assay: p21 induction in HCT116 cells; assay type: cell-based; conditions: Homo sapiens, HCT-116, 24 h, HCT116 cells, 24 h compound incubation; read-out: P21_EC50
Summary of the method: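 EC50 from non-linear curve fit of p21 immunofluorescence (800 nm), with GAPDH (700 nm) read alongside. DMSO and a reference WRN inhibitor served as low and high controls. Cells (2,000/well) got 11 compound concentrations in duplicate for 24 h at 37 °C.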

Chain of WRN (BV08), human Werner helicase (Uniprot Q14191, amino acids 517-1235 with L1074F point mutation) (Q14191 other isoform, or with tags, fused parts or gaps L1074F (already in the parent)): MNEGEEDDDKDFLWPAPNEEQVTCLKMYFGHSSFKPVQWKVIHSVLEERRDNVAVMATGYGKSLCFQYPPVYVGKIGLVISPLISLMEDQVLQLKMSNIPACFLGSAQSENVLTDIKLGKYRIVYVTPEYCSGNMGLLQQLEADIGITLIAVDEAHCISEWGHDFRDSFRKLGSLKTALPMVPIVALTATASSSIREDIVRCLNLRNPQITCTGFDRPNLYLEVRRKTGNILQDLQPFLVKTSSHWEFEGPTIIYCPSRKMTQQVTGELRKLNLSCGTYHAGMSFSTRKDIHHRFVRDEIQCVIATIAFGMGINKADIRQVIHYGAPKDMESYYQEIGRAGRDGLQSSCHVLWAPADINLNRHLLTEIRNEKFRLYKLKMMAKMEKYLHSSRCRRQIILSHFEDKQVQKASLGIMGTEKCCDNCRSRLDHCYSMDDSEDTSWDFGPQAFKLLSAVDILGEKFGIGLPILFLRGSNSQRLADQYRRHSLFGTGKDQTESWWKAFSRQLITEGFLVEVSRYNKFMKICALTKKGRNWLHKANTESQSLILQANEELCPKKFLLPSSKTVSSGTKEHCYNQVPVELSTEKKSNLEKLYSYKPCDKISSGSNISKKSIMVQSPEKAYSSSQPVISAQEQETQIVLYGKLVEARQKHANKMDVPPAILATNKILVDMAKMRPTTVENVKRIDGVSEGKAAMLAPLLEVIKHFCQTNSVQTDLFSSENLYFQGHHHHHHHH

Row | SMILES | IC50 [1] [nM] | EC50 [2] [nM]
1 | CCc1c(N2CCN(C(=O)c3ncnc(C)c3O)CC2)c(=O)c2nc(N(C)C(C)=O)cnc2n1CC(=O)Nc1ccc(C(F)(F)F)cc1Cl [I-30, N-(2-chloro-4-(trifluoromethyl)phenyl)-2-(6-ethyl-7-(4-(5-hydroxy-6-methylpyrimidine-4-carbonyl)piperazin-1-yl)-2-(N-methylacetamido)-8-oxopyrido[2,3-b]pyrazin-5(8H)-yl)acetamide] | 50 to 100 | > 5000
2 | CCc1c(N2CCN(C(=O)c3ncnc(C)c3O)C[C@@H]2CO)c(=O)c2nc(N(C)C)cnc2n1CC(=O)Nc1ccc(C(F)(F)F)cc1Cl [I-244, N-[2-chloro-4-(trifluoromethyl)phenyl]-2-[2-(dimethylamino)-6-ethyl-7-[(2R)-4-(5-hydroxy-6-methylpyrimidine-4-carbonyl)-2-(hydroxymethyl)piperazin-1-yl]-8-oxo-5H,8H-pyrido[2,3-b]pyrazin-5-yl]acetamide] | 5 to 50 | > 5000
3 | CCc1c(N2CCN(C(=O)c3ncnc(C)c3O)[C@H]3CC[C@@H]32)c(=O)c2nc(N(C)C)cnc2n1CC(=O)Nc1ccc(C(F)(F)F)nc1Cl [I-222, N-[2-chloro-6-(trifluoromethyl)pyridin-3-yl]-2-[2-(dimethylamino)-6-ethyl-7-[(1S,6S)-5-(5-hydroxy-6-methylpyrimidine-4-carbonyl)-2,5-diazabicyclo[4.2.0]octan-2-yl]-8-oxo-5H,8H-pyrido[2,3-b]pyrazin-5-yl]acetamide] | 5 to 50 | < 500
4 | CCc1c(N2CCN(C(=O)c3ncnc(C)c3O)CC2)c(=O)c2nc(N(C)C)cnc2n1CC(=O)Nc1c(F)cc(C(F)(F)F)cc1Cl [I-133, N-[2-chloro-6-fluoro-4-(trifluoromethyl)phenyl]-2-[2-(dimethylamino)-6-ethyl-7-[4-(5-hydroxy-6-methylpyrimidine-4-carbonyl)piperazin-1-yl]-8-oxo-5H,8H-pyrido[2,3-b]pyrazin-5-yl]acetamide] | 5 to 50 | > 5000
5 | CCc1c(N2CCN(C(=O)c3ncnc(C)c3O)[C@H]3CCC[C@H]32)c(=O)c2nc(N(C)C)cnc2n1CC(=O)Nc1ccc(C(F)(F)F)cc1Cl (single isomer, unassigned) [I-208, N-(2-chloro-4-(trifluoromethyl)phenyl)-2-(2-(dimethylamino)-6-ethyl-7-(4-(5-hydroxy-6-methylpyrimidine-4-carbonyl)octahydro-1H-cyclopenta[b]pyrazin-1-yl)-8-oxopyrido[2,3-b]pyrazin-5(8H)-yl)acetamide] | 100 to 500 | > 5000
6 | CCc1c(N2CCN(C(=O)c3ncnc(C)c3O)CC2)c(=O)c2nc(OC)cnc2n1CC(=O)Nc1ccc(C(F)(F)F)cc1Cl [I-81, N-(2-chloro-4-(trifluoromethyl)phenyl)-2-(6-ethyl-7-(4-(5-hydroxy-6-methylpyrimidine-4-carbonyl)piperazin-1-yl)-2-methoxy-8-oxopyrido[2,3-b]pyrazin-5(8H)-yl)acetamide] | 50 to 100 | > 5000
7 | CCc1c(N2CCN(C(=O)c3ncnc(C)c3O)[C@@H]3CCC[C@H]32)c(=O)c2nc(N(C)C)cnc2n1CC(=O)Nc1ccc(C(F)(F)F)cc1Cl [I-215, 2-{7-[(4aR,7aR)-4-(5-hydroxy-6-methylpyrimidine-4-carbonyl)-octahydro-1H-cyclopenta[b]pyrazin-1-yl]-2-(dimethylamino)-6-ethyl-8-oxo-5H,8H-pyrido[2,3-b]pyrazin-5-yl}-N-[2-chloro-4-(trifluoromethyl)phenyl]acetamide] | 100 to 500 | > 5000
8 | CCc1c(N2CCN(C(=O)c3ncnc(C)c3O)[C@H]3CC[C@@H]32)c(=O)c2nc(C3=CCOCC3)cnc2n1CC(=O)Nc1ccc(C(F)(F)F)cc1Cl [I-284, N-[2-chloro-4-(trifluoromethyl)phenyl]-2-[2-(3,6-dihydro-2H-pyran-4-yl)-6-ethyl-7-[(1S,6S)-5-(5-hydroxy-6-methylpyrimidine-4-carbonyl)-2,5-diazabicyclo[4.2.0]octan-2-yl]-8-oxo-5H,8H-pyrido[2,3-b]pyrazin-5-yl]acetamide] | 5 to 50 | < 500
